We go through 17 molecules from US7166642B1, “Use of cyclohexenone long-chain alcohol for treating neurodegenerative diseases” (Meiji Dairies Corporation, priority 1999, dated 2007).

What is called melting point is the temperature, or range, at which the solid turns liquid.

The subject of series [1] is Neurons originating from the cerebral hemisphere of rat fetus. Kind of series: Neurite-extension effect. The conditions noted are these: for activity at 0.01 µM: Rattus norvegicus, Neuron, 72 h; for activity at 0.01 µM / Neurite-extension effect: 1×10^−8 M, cultured for three days, phase-contrast microscope; for neurite-extension effect as compared with bFGF (in words): summary of Table 1. The arrangement: key to Neurite-extension effect: 0: No effect; +: Faintly effective; ++: Slightly effective; +++: Effective >160%; ++++: Remarkably effective >200%. It counts as cell-based. Here is the method:
Neurons originating from the cerebral hemisphere of rat fetus (13–15 days) were used. The neurons were cultured according to a method described by Borg, J. et al. (Borg, J. et al.: Dev. Brain Res., 18: 37, 1985). Neurons in an amount of 1.5×10^5 were dispersed on a polylysine-coated dish (35 mm), and DMEM (supplemented with insulin, transferrin, progesterone, sodium selenate, and putrescine) was added thereto in an amount of 3 ml. Compound (1) of the present invention was dissolved in ethanol, and then the solution was added thereto such that the concentration became 1×10^−8 M. The neurons had been cultured for three days without the culture medium being changed. Thereafter, the neurons were fixed by use of PBS containing 2% glutaraldehyde and observed under a phase-contrast microscope.

The test system of series [2] is transgenic mice expressing an SOD-1 mutant gene (G86R). Kind of series: Survival test for transgenic mice expressing an SOD-1 mutant gene. It counts as in vivo, mouse. Here is the method: Ten transgenic mice were subjected to the survival test. The transgenic mice employed were those in which Gly-86 in the fourth exon of a mouse SOD-1 gene is mutated to Arg (G86R) (Ripps M. E., et al.: Proc. Natl. Acad. Sci. USA. 92: 689–693, 1995). The compound of Preparation Example 10 [3-(14-hydroxytetradecyl)-4-methyl-2-cyclohexen-1-one] was dissolved in ethanol/Tween 80/physiological saline (5/2.85/92.15). The solution was intraperitoneally (i.p.) administered to five specimens at an effective dose of 2 mg/kg for 40 continuous days, and physiological saline alone was similarly administered to the other five specimens. One mouse died due to injection complication before elapse of 90 days. The other four mice died at day 150. All control animals died at about day 90. The life was prolonged by 50% or more, which has high significance.
(1) Transgenic mice expressing an SOD-1 mutant gene were subjected to the survival test in the same manner as Test Example 1 except that 8 mg/kg of compound of Preparation Example 10 was intraperitoneally administered three times a week until the mice died. […] The life was prolonged by 30% or more.
(3) Moreover, in the survival test of transgenic mice (1), onset day (i.e., the day from which mouse becomes impossible to move) was compared between the mouse to which was administered compound of Preparation Example 10 and the control mouse. As a result, for the mouse to which was administered compound of Preparation Example 10, when compared to the control mouse, a prolonged time to the onset day by […] was observed, onset day being prolonged by 20%.

Series [3] concerns transgenic mice expressing an SOD-1 mutant gene. Kind of series: Bar test for confirming the motor function in transgenic mice expressing the mutant SOD-1 gene. As to conditions: 8 mg/kg i.p. three times a week; measured from 80 to 91 days after birth; metallic bar 10 mm diameter, 45 cm length. It counts as in vivo, mouse. Here is the method:
(2) Meanwhile, during the survival test (1) of the transgenic mice, bar test for confirming the motor function was conducted. In this test, the mouse to which was administered compound of Preparation 10 and control mouse were compared in the time (seconds) required for their passing over a metallic bar having the size of 10 mm in diameter and 45 cm in length. The measurement was carried out from 80 days to 91 days after birth. […] However, when compared the difference between the time at the initial date and the time at the final date, of the mouse to which was administered compound of Preparation Example 10 and of the control mouse, the ratio of the difference of the mouse to which was administered compound of Preparation Example 10 to the difference of the control mouse was about 40%.

As for `CC1=C(CCCCCCCCCCCCCCO)CCCC1=O` [Preparation Example 20, 3-(14-hydroxytetradecyl)-2-methyl-2-cyclohexen-1-one], in series [1], the activity at 0.01 µM was more than 200% and the “neurite-extension effect as compared with bFGF (in words)” value is “remarkably excellent”.

With `CC1=C(CCCCCCCCCCCCCCO)C(C)(C)CCC1=O` [Preparation Example 23, 3-(14-hydroxytetradecyl)-2,4,4-trimethyl-2-cyclohexen-1-one], in series [1], the activity at 0.01 µM was more than 160% and the “neurite-extension effect as compared with bFGF (in words)” value is “remarkably excellent”.

For `CC1=C(CCCCCCCCCCC(C)O)C(C)(C)CCC1=O` (stereo not drawn) [Preparation Example 22, 3-(11-hydroxydodecyl)-2,4,4-trimethyl-2-cyclohexen-1-one], the Neurite-extension effect result in series [1] was “++”.

In the case of `CC1(C)CCC(=O)C=C1CCCCCCCCCCCCCCO` [Preparation Example 15, 3-(14-hydroxytetradecyl)-4,4-dimethyl-2-cyclohexen-1-one], the activity at 0.01 µM in series [1] is more than 160%.

`CCCCCCCCCCC(O)C1=CC(=O)CCC1` (stereo not drawn) [Preparation Example 2, 3-(1-hydroxy-undecyl)-2-cyclohexen-1-one] returned a melting point of 34 to 35 °C.

The molecule `O=C1C=C(CCCCCCCCCCCCO)CCC1` [Preparation Example 3, 3-(12-hydroxy-dodecyl)-2-cyclohexen-1-one] registered a melting point of 35 to 36 °C.

Consider `CC1=C(CCCCCCCCCCCCCCCO)C(C)(C)CCC1=O` [Preparation Example 24, 3-(15-hydroxypentadecyl)-2,4,4-trimethyl-2-cyclohexen-1-one], for which, in series [1], the activity at 0.01 µM was more than 200% and the “neurite-extension effect as compared with bFGF (in words)” value is “remarkably excellent”.

Turning to `O=C1C=C(CCCCCCCCCCCCCCO)CCC1` [Preparation Example 5, 3-(14-hydroxy-tetradecyl)-2-cyclohexen-1-one], the melting point lay within 44 to 45 °C.

In the case of `CCCCCCCCCCCC(O)CC1=CC(=O)CCC1C` (stereo not drawn) [Preparation Example 9, 3-(β-hydroxytridecyl)-4-methyl-2-cyclohexen-1-one], in series [1], the activity at 0.01 µM was more than 200% and the “neurite-extension effect as compared with bFGF (in words)” value is on record as “remarkably excellent”.

Consider `CC1CCC(=O)C=C1CCCCCCCCCCCCCCO` (stereo not drawn) [Preparation Example 10, 3-(14-hydroxytetradecyl)-4-methyl-2-cyclohexen-1-one], for which, in series [1], the activity at 0.01 µM was more than 200% and the “neurite-extension effect as compared with bFGF (in words)” value is listed as “remarkably excellent”. The molecule also displayed a prolongation of life in series [2] (Test Example 1: 2 mg/kg i.p. for 40 continuous days, versus saline control) not below 50%. Also, the “day at which treated mice died” value in series [2] (Test Example 1: 2 mg/kg i.p. for 40 continuous days, four of five mice (one died of injection complication before day 90), controls died at about day 90) is 150 days. In series [2] (Test Example 1, control mice were morbid and could not act appropriately), the “activity of mice during the test” value is listed as “very active”. Further, the “survival of two of the treated mice” value in series [2] (Test Example 2: 8 mg/kg i.p. three times a week until death) is given as “more than 200 days”. Also, the “day at which treated mice died, on average” value in series [2] (Test Example 2: 8 mg/kg i.p. three times a week until death, controls died at around day 110) was approximately 150 days. Further, the “prolongation of onset day” value in series [2] (Test Example 2: 8 mg/kg i.p. three times a week, compared to control) was determined as 20%. For the same molecule, the prolongation of life in series [2] (Test Example 2: 8 mg/kg i.p. three times a week, versus control) is on record as not below 30%. In addition, in series [3], the “ratio of the difference (time at initial date vs final date for passing the bar) of treated mouse to that of control mouse” value is reported as “about 40%”.

In the case of `CCCCCCCCCCCC(O)CC1=CC(=O)CCC1(C)C` (stereo not drawn) [Preparation Example 14, 3-(β-hydroxytridecyl)-4,4-dimethyl-2-cyclohexen-1-one], the activity at 0.01 µM in series [1] is more than 160%.

Turning to `CCCCCCCCCCCC(O)CC1=CC(=O)CCC1` (stereo not drawn) [Preparation Example 4, 3-(β-hydroxy-tridecyl)-2-cyclohexen-1-one], the melting point lay in the range of 42 to 43 °C.

For the molecule `CC1=C(CCCCCCCCCCCCO)CCCC1=O` [Preparation Example 18, 3-(12-hydroxydodecyl)-2-methyl-2-cyclohexen-1-one], the Neurite-extension effect result in series [1] is “++”.

In the case of “BFGF: bFGF, comparison substance in the neurite-extension test of Table 1 [reference compound]”, the Neurite-extension effect entry in series [1] was “++”.

Consider `CC1(C)CCC(=O)C=C1CCCCCCCCCCCO` [Preparation Example 12, 3-(11-hydroxyundecyl)-4,4-dimethyl-2-cyclohexen-1-one], for which the Neurite-extension effect result in series [1] was “++”.

As to `CC1CCC(=O)C=C1CCCCCCCCCCCCO` (stereo not drawn) [Preparation Example 8, 3-(12-hydroxydodecyl)-4-methyl-2-cyclohexen-1-one], the activity at 0.01 µM in series [1] was more than 160%.

As to `CC1(C)CCC(=O)C=C1CCCCCCCCCCCCO` [Preparation Example 13, 3-(12-hydroxydodecyl)-4,4-dimethyl-2-cyclohexen-1-one], in series [1], the activity at 0.01 µM is more than 160%.
